Structures are written as SMILES. pIC50: −log10 of the molar value. Bounds are passed on as bounds.

The target in the test is T1, Progesterone receptor (Homo sapiens, UniProt P06401).
T1 sequence (P06401 whole entry): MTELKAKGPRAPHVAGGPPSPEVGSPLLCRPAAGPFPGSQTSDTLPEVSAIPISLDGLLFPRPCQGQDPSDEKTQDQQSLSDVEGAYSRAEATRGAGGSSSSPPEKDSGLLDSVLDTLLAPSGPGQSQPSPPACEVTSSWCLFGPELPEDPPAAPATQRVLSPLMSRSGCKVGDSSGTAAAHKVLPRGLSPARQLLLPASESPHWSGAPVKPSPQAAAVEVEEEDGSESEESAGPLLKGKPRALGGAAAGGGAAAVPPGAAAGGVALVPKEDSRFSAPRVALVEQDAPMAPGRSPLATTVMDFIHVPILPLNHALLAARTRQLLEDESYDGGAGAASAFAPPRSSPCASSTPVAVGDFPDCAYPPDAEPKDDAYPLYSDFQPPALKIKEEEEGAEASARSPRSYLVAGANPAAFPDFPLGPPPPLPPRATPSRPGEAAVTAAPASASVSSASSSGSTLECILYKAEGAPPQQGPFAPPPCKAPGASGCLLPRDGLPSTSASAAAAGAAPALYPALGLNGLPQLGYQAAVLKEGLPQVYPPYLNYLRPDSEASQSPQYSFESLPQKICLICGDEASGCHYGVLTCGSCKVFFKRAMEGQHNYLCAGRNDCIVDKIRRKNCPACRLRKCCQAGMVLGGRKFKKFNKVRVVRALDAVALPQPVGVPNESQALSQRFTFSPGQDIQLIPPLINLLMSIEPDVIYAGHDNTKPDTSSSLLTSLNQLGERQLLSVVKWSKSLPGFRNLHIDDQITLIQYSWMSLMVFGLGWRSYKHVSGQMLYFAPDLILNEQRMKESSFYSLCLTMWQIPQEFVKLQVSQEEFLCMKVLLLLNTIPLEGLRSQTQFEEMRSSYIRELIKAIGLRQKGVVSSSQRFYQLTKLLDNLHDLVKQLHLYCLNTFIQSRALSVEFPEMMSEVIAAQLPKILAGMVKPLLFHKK
As to the kind of experiment: Binding affinity against Progesterone receptor in human TE85 osteosarcoma cells was determined using (Z)-[125I]-17-alpha-(2-iodovinyl)-19-nor-testosterone as radioligand.
With `O=C(c1ccc(Cl)c(Cl)c1)N1CC=CC(c2ccccc2)=N1`, the pIC50 was < 6.00. `Clc1ccc(CN2CCCC(c3ccccc3)=N2)cc1Cl`: the pIC50 is < 6.00. The same measure for `O=C(c1ccc(Cl)c(Cl)c1)N1CCCC(c2ccc(Cl)cc2)=N1`: 7.08. For `CCCCc1ccc(C2=NN(C(=O)c3ccc(Cl)c(Cl)c3)CCC2)cc1`, the pIC50 is < 6.00. The same measure for `CC(C)(C)c1ccc(C(=O)N2CCCC(c3ccccc3)=N2)cc1`: < 6.00; for `O=C1CCC(c2ccccc2)=NN1Cc1ccc(Cl)c(Cl)c1`: 6.77; for `Cc1ccc(C(=O)N2CCCC(c3ccccc3)=N2)cc1`: 6.38. Consider `CC1CCN(C(=O)c2ccc(Cl)c(Cl)c2)N=C1c1ccccc1` (centres undefined), for which the pIC50 was 7.62.

`O=C(c1ccc(Cl)c(Cl)c1)N1CCCC(c2ccc(F)cc2)=N1`: the pIC50 was 7.32. `O=C(c1ccc(F)c(F)c1)N1CCCC(c2ccccc2)=N1`: the pIC50 is 6.29. The same measure for `O=C(c1ccc(Cl)c(C(F)(F)F)c1)N1CCCC(c2ccccc2)=N1`: 6.57. The compound `S=C(c1ccc(Cl)c(Cl)c1)N1CCCC(c2ccccc2)=N1` gave a pIC50 of 7.76. Regarding `COc1ccc(C2=NN(C(=O)c3ccc(Cl)c(Cl)c3)CCC2)cc1`, the pIC50 was < 6.00. To `O=C(c1ccc(Cl)cc1)N1CCCC(c2ccccc2)=N1` belongs 6.28; to `O=C(c1ccc(Cl)c(Cl)c1)N1CCCC(c2ccccc2)=N1`, 7.20. As for `CC1CC(c2ccccc2)=NN(C(=O)c2ccc(Cl)c(Cl)c2)C1` (centres undefined), the negative-log IC50 (pIC50) was 7.01.

The compound `O=C(c1ccc(F)c(Br)c1)N1CCCC(c2ccccc2)=N1` gave a pIC50 of 7.42. To `O=S(=O)(c1ccc(Cl)c(Cl)c1)N1CCCC(c2ccccc2)=N1` belongs < 6.00; to `COc1ccc(C(=O)N2CCCC(c3ccccc3)=N2)cc1`, < 6.00; to `CC1(C)CC(c2ccccc2)=NN(C(=O)c2ccc(Cl)c(Cl)c2)C1`, 7.12. `O=C(c1cccc(Cl)c1)N1CCCC(c2ccccc2)=N1` showed a pIC50 of 7.15. The same measure for `O=C(c1ccccc1)N1CCCC(c2ccccc2)=N1`: < 6.00. The same measure for `CCc1ccc(C2=NN(C(=O)c3ccc(Cl)c(Cl)c3)CCC2)cc1`: 6.24; for `O=C(c1ccc(Br)cc1)N1CCCC(c2ccccc2)=N1`: < 6.00.

Usually pIC50 stands for the IC50 on a negative log10 scale, so that one unit is a factor of ten. A high value points to a low IC50.

For the origin of these results see ChEMBL document CHEMBL1128701 (J Med Chem, 1995).
